The text below walks through data of patent US7629156B2, “Ethanol production in fermentation of mixed sugars containing xylose” (E.I. du Pont de Nemours and Company, priority 2006, dated 2009).

The subject of assay [1] is ZW658 strain. Description: Flask fermentation of ZW658 on high concentration glucose or xylose alone with sorbitol. It counts as cell-based, Zymomonas mobilis. The conditions noted are these: for OD600: after 48 hours, 33° C.; for ethanol production rate: 20 mM sorbitol vs no sorbitol. Here is the method:
(§1) Approximately 1 ml of well mixed sample was obtained from flask or fermentor. First the sample absorbance was measured directly with a spectrophotometer (Amersham Biosciences Ultrospec 3300pro, GE Healthcare, Piscataway, N.J., USA). If the reading was lower than 0.6 unit, no dilution was needed. If the reading was higher than 0.6 unit, the sample was diluted with culture medium until the actual reading was in the range of 0.1 to 0.6 unit. The original OD was calculated from the dilution ratio and the actual reading.
(§2) The analysis of sugars, acetate, ethanol, and other by-products was done with an Agilent 1100 series HPLC and Agilent ChemStation software for LC 3D. The column was BioRad Aminex HPX-87H(HPLC Organic Analysis Column 125-0140) with BioRad Micro-Guard Cartridge Cation-H (125-0129). The operating conditions were:
(§3) Glycerol stock of seed frozen at −80° C. was thawed, then inoculated into sterile culture tubes with mixture of 60 g/L glucose, 20 g/L xylose, 10 g/L yeast extract (YE), 10 g/L KH2PO4, 2 g/L (NH4)2SO4, and 1 g/L MgSO4. Initial pH was adjusted to 5.5 with 4 N KOH. This revival culture was grown statically overnight at 37° C. It was transferred into shake flasks with 75 g/L glucose, 25 g/L xylose, 10 g/L yeast extract (YE), 10 g/L KH2PO4, 2 g/L (NH4)2SO4, and 1 g/L MgSO4. Initial pH was adjusted to 5.5 with 4 N KOH. Growth was monitored by measuring OD600. When the OD reached approximately 5, a certain volume of the seed was withdrawn into a sterile syringe for inoculation.
In four sterilized 125 ml Erlenmeyer culture flasks (Cat. No. 30180-036, VWR International, USA), 10 ml of ZW658 strain seed culture at OD600 of approximately 5 was inoculated into each flask with 100 ml of aqueous solution containing 10 g/L yeast extract (YE), 2 g/L KH2PO4, 4 g/L KHCO3. Before inoculation, the first flask also contained 200 g/L glucose and 20 mM sorbitol, comparing to the second flask with 200 g/L glucose only. The third flask contained 200 g/L xylose and 20 mM sorbitol, comparing to the fourth flask with 200 g/L xylose only. After inoculation, sugar concentrations were diluted to about 180 g/L. Initial pH was adjusted to 5.5 with 4 NH3PO4 solution. Mixing speed was set at 150 rpm. Fermentation was conducted at 33° C. and pH was not controlled. Samples were taken periodically. Samples were filtered through 0.22 micron filters, and the filtrates were analyzed by HPLC as described in General Methods for compounds including glucose, xylose, ethanol, and xylitol. Samples were diluted with medium (as described in General Methods) and the OD600 was measured to monitor cell growth. […] After 48 hours, the OD600 were 9.94, 6.46, 5.37 and 5.45, respectively, for the first, second, third, and fourth flask.

Assay [2] relates to ZW658 strain. As to the kind of experiment: 1-liter fermentor, ZW658 on high concentration glucose and xylose with sorbitol or glutamate. It counts as cell-based, Zymomonas mobilis. As for the experimental part: as §1, §2, §3
In a sterilized 1-liter fermentor (BIOSTAT® B-DCU system, Sartorius BBI System Inc., Bethlehem, Pa., USA), 50 ml of ZW658 strain seed culture at Optical Density of approximately 5 (measured at 600 nm) was inoculated into 450 ml of aqueous solution containing sugars and medium. The final mixed broth contained 100 g/L glucose, 85.1 g/L xylose, 10 g/L yeast extract (YE), 2 g/L KH2PO4, and 10 mM sorbitol. pH was adjusted to 5.5 with 4 N KOH solution. Mixing speed was set at 150 rpm. Fermentation was conducted at 33° C. and pH 5.5. Samples were taken periodically. Samples were filtered through 0.22 micron filters, and the filtrates were analyzed by HPLC as described in General Methods for compounds including glucose, xylose, ethanol, and acetate. Samples were also diluted with medium (as described in General Methods) and the OD600 was measured to monitor cell growth. […] The by-product xylitol concentration was 0.67 g/L at 29 hr, and increased to 0.95 g/L at 64 hr.
In a sterilized 1-liter fermentor (BIOSTAT® B-DCU system, Sartorius BBI System Inc., Bethlehem, Pa., USA), 50 ml of ZW658 strain seed culture at OD600 of approximately 5 was inoculated into 450 ml of aqueous solution containing sugars and medium. The final mixed broth contained 98.0 g/L glucose, 81.2 g/L xylose, 10 g/L yeast extract (YE), 2 g/L KH2PO4, and 10 mM potassium glutamate. pH was adjusted to 5.5 with 4 N KOH solution. Mixing speed was set at 150 rpm. Fermentation was conducted at 33° C. and pH 5.5. Samples were taken periodically. Samples were filtered through 0.22 micron filters, and the filtrates were analyzed by HPLC as described in General Methods for compounds including glucose, xylose, xylitol, ethanol, and acetic acid. Samples were also diluted with medium (as described in General Methods) and the OD600 was measured to monitor cell growth. […] However, xylose was not well-utilized, cell growth and ethanol production were reduced as compared to that in the presence of sorbitol (Example 4), and xylitol production increased.

[3] abbreviates: after 29 hours, 100 g/L glucose, 85.1 g/L xylose, 10 mM sorbitol, 33° C., pH 5.5.

As for `OC[C@@H](O)[C@@H](O)[C@H](O)[C@@H](O)CO` [sorbitol], the OD600 in the assay on ZW658 strain [1] (200 g/L glucose (about 180 g/L after inoculation), 20 mM sorbitol) came to 9.94; with ZW658 strain [1] (200 g/L xylose (about 180 g/L after inoculation), 20 mM sorbitol), 5.37. The ethanol production rate entry is “more rapid” in the assay on ZW658 strain [1] (glucose culture); “at the same rate with and without sorbitol” in the assay with ZW658 strain [1] (xylose only culture). Also, the xylitol production result with ZW658 strain [1] (glucose only or xylose only cultures, 20 mM sorbitol) is “No xylitol was produced”. For the same molecule, the effect on growth entry is on record as “significantly stimulated growth” with ZW658 strain [1] (high concentration glucose culture, 20 mM sorbitol); “almost no effect on growth” in the assay on ZW658 strain [1] (high concentration xylose culture, 20 mM sorbitol); “doubled the growth” in the assay with ZW658 strain [2] (with vs without 10 mM sorbitol). Also, in the assay on ZW658 strain [2] (100 g/L glucose, 85.1 g/L xylose, 10 mM sorbitol, 33° C., pH 5.5), the “OD600 cells grew to” value worked out at 13. Further, in the assay on ZW658 strain [2] (Examples 4 and 5, with vs without sorbitol), the “reduction of xylitol with addition of sorbitol” value is “about 3 fold”. Also, the ethanol concentration in the assay with ZW658 strain [2] (setting [3]) is recorded as 83.9 g/L. The molecule further had a glucose concentration in the assay with ZW658 strain [2] (setting [3]) of 0 g/L. In the assay with ZW658 strain [2] (setting [3]), this molecule had a xylose concentration of 2.08 g/L. Moreover, the by-product xylitol concentration in the assay with ZW658 strain [2] (at 29 hr, 10 mM sorbitol) is recorded as 0.67 g/L; in the assay on ZW658 strain [2] (at 64 hr, 10 mM sorbitol) it was 0.95 g/L. In addition, in the assay with ZW658 strain [2] (sugars mixture with 100 g/L glucose, no acetate, in the presence of sorbitol), the “time to complete utilization of 85 g/L xylose” value was at most 30 h. Further, in the assay on ZW658 strain [2] (with vs without 10 mM sorbitol), the “effect on lag time” value is “significantly reduced the lag time”.
